# Counter-ions that a name gives are not always drawn. Like-named read-outs stand apart in the source and are kept apart here.
# Assays:
# [1] = system: ADR-RES human breast cancer cell line; conditions: read-out: IC50 of Compound 1 tartrate; NCI/ADR-RES, Breast (Mutli-drug resistant); ATP levels 72 h post-treatment compared to untreated cells
# Description: (§1) The cells lines were plated in 96-well microtiter plates (PerkinElmer Life Sciences Inc, Boston, Mass., USA) at a confluency that allowed them to reach confluence after 4 days of growth. […] The total dimethyl sulfoxide on the cells was 1%. After 3 days of incubation the ATP levels in the cells were quantified using a luminescent ViaLight detection system (Bio-Whittaker, MD, USA).
# [2] = system: PC-3 human prostatic carcinoma cell line; conditions: read-out: IC50 of Compound 1 tartrate; PC-3, Prostate; ATP levels 72 h post-treatment compared to untreated cells
# Description: as §1
# [3] = system: A549 human lung carcinoma cell line; conditions: read-out: IC50 of Compound 1 tartrate; A549, NSCLC; ATP levels 72 h post-treatment compared to untreated cells
# Description: as §1
# [4] = system: MCF-7 human breast cancer cell line; conditions: read-out: IC50 of Compound 1 tartrate; MCF-7, Breast; ATP levels 72 h post-treatment compared to untreated cells
# Description: as §1
# [5] = system: SW-480 human adenocarcinoma cell line; conditions: read-out: IC50 of Compound 1 tartrate; SW-480, Colorectal; ATP levels 72 h post-treatment compared to untreated cells
# Description: as §1
# [6] = system: OVCAR-3 human ovarian carcinoma cell line; conditions: read-out: IC50 of Compound 1 tartrate; OVCAR-3, Ovary; ATP levels 72 h post-treatment compared to untreated cells
# Description: as §1
# [7] = system: cancer cell lines H1299 and C33A, normal cell lines HMEC and MRC-5; conditions: 0.5 μM, 72 hours after treatment; H1299 and C33A vs HMEC and MRC-5; FIG. 1
# Description: as §1
# [8] = system: H460 non-small cell lung cancer cell line; conditions: read-out: IC50 of Compound 1 tartrate; H460, NSCLC; ATP levels 72 h post-treatment compared to untreated cells
# Description: as §1
# [9] = system: B16-F1 mouse melanoma cell line; conditions: read-out: IC50 of Compound 1 tartrate; B16-F1, Murine Melanoma; ATP levels 72 h post-treatment compared to untreated cells
# Description: as §1
# [10] = system: HMEC normal mammary epithelial cells
# Description: as §1
# [11] = system: H1299 human non-small cell lung cancer cells; assay: Cell viability by cellular ATP levels (ViaLight), H1299 cells; format: cell-based; conditions: H1299, NSCLC; ATP levels 72 h post-treatment compared to untreated cells; read-out: IC50 of Compound 1 tartrate
# From the text: (§2) […]. […] […]. The total dimethyl sulfoxide on the cells was 1%. […] […].
# (§3) As depicted in Table 4, these compounds were efficient in decreasing cellular ATP levels in HI 299 and C33A cancer cell lines. Nevertheless, these compounds are believed to have utility in the in vivo methods of the invention, i.e., treatment and prevention of cancer and viral infections, respectively. It should be noted that, although this cell-based assay is believed to be indicative of anti-oncogenic activity in vivo, it is not the only useful assay for evaluating the anti-oncogenic activity of Triheterocyclic Compounds of the invention. In addition, the anti-viral and other biological activity of compounds of the invention can be determined and evaluated in other assay systems known to the skilled artisan.
# [12] = system: C33A cervical carcinoma cells; assay: cells; format: cell-based; conditions: C-33A, Cervix; ATP levels 72 h post-treatment compared to untreated cells; read-out: IC50 of Compound 1 tartrate
# From the text: as §2, §3
# [13] = system: C33A human cervical cancer cells; conditions: for reduction in tumor growth compared to vehicle only: 4.5 mg/kg IV once a day for five days, C33A tumors in SCID mice, FIG. 3; for T/C value: 4.5 mg/kg IV once daily for five days
# Description: The resultant mice are a model for a human having cervical cancer.
# The C33A human cervical cancer cells were maintained in RPMI (Hyclone, Utah, USA) supplemented with 10% inactivated fetal bovine serum (Bio-Whittaker, MD, USA) and 1% penicillin-streptomycin-L-Glutamine (Gibco, N.Y., USA), under 5% CO2 at 37° C., and passaged twice a week. The cells were grown at a confluency lower than 70% and than collected with Trypsin (Bio-Whittaker, MD, USA). The cells were then centrifuged and washed twice using phosphate buffered saline solution (PBS) and resuspended in PBS at 2×10^6 cells per 100 μl.
# C33A cells were injected subcutaneously into the flank of female CB17 SCID/SCID mice. Each mouse was inoculated with a suspension of 2×10^6 tumors cells per 150 μl on day zero.
# Treatments started on day fourteen after C33A cells transplantation. […] The negative control group was treated with vehicle alone. […] The positive control group was treated once every 3 days for five times with cisplatin (Sigma, St. Louis, Mo., USA) at a dose of 4 mg/kg. Cisplatin was formulated in PBS on each day of the injection and was administered IP in an injection volume of 80 μl.
# The mice were weighed and the tumors measured on day 13 and every 2 days after treatment commenced. Observation continued for 40 days after initial tumor implantation. The changes in body weight and in the calculated tumor volume were plotted.
# [14] = Shelf stability (precipitation) of formulation; format: physicochemical; conditions: 0.6 mg/mL in 9.6% polyethylene glycol 300, 0.4% polysorbate 20 and 5% dextrose; listed as Compound 1 Tartrate Salt
# Description: To determine whether a compound is soluble in a solution, the solution was filtered on 0.2 μM polytetrafluoroethylene filters (Whatman Inc. Clifton, N.J., USA) and the compound concentration in the filtrate was measured by LC/MS and compared to the expected concentration.
# [15] = format: in vivo, CB17 SCID/SCID mice; conditions: 4.5 mg/kg IV once daily for five days, FIG. 2
# Description: Treatments started on day fourteen after C33A cells transplantation. […]. The negative control group was treated with vehicle alone. […].
# Observation continued for 40 days after initial tumor implantation.
structure (smiles),measurement,setting,value
COC1=CC(c2cc3ccccc3[nH]2)=N/C1=C\c1[nH]c(C)cc1C [Compound 1 tartrate],IC50,[1],400 nM
same,IC50,[2],200 nM
same,IC50,[3],400 nM
same,IC50,[4],600 nM
same,IC50,[5],200 nM
same,IC50,[6],200 nM
same,lowering of ATP levels in cancer cell lines compared with normal cell lines,[7],significantly more effective at lowering ATP levels
same,IC50,[8],300 nM
same,IC50,[9],60 nM
same,IC50,"[10]; read-out: IC50 of Compound 1 tartrate, HMEC, Normal Breast, ATP levels 72 h post-treatment compared to untreated cells",4000 nM
same,efficacy in decreasing cellular ATP levels in cancer cell lines versus HMEC normal cell line,"[10]; ten cancer cell lines vs HMEC, various concentrations",greater efficacy in decreasing cellular ATP levels
same,IC50,[11],500 nM
same,IC50,[12],200 nM
same,reduction in tumor growth compared to vehicle only,[13],statistically significant (p<0.0001) reduction in tumor growth
same,reduction in tumor growth compared to vehicle only,[13]; listed as Compound 1 Tartrate,significantly reduces the human cervical tumors
same,T/C value,[13]; day 36,14%
same,T/C value,[13]; day 39,22%
same,average tumor size versus vehicle only,"[13]; days 36 and 39, 4.5 mg/kg",significantly (p<0.001) smaller tumors
same,precipitation of formulation,[14],tends to precipitate one hour after its preparation
same,body weight change,[15],no significant changes in body weight
same,body weight change,[15]; listed as Compound 1 Tartrate,non-significant weight loss

# From patent US20050267073A1, “Triheterocyclic compounds, compositions, and methods for treating cancer or viral diseases” (priority 2004, published 2005)
